These results are taken from PMC6149824, “Design and Synthesis of New Benzothiazole Compounds as Selective hMAO-B Inhibitors” (Molecules : A Journal of Synthetic Chemistry and Natural …, 2017).

Molecules are shown by their SMILES. Entries after “also recorded” stand apart in the source; their conditions may differ.

Series [1] addresses T1, hMAO-A (Homo sapiens, UniProt P21397).
T1 sequence (P21397 1-527): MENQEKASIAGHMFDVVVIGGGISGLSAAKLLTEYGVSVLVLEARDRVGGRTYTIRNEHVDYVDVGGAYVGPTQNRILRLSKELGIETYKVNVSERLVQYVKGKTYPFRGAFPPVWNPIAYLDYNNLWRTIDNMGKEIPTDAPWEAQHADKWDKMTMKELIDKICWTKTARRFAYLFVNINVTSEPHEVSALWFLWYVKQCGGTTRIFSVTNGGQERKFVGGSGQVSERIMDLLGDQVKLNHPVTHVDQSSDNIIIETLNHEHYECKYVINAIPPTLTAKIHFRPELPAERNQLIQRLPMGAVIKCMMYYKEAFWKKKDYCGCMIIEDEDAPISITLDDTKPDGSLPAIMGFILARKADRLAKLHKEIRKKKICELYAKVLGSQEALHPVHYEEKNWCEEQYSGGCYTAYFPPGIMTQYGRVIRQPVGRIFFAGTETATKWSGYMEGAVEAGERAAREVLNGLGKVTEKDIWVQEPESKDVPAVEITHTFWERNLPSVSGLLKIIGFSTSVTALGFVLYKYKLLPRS
The series is described as follows: in vitro fluorometric hMAO-A inhibition assay (Amplex Red). In kind it is biochemical. Particulars: read-out: MAO A Inhibition %. As to the method:
The in vitro fluorometric enzymatic assay, allowing to sensitively detect monoamine oxidase activity, was applied to investigate hMAO-A and hMAO-B inhibitory potential of compounds 3a–3j. The method was performed in two steps, as previously described. […]
An enzyme inhibition assay was performed according to our recent study. The inhibitor (20 μL/well) and hMAO-A (100 μL/well) or hMAO-B solution (100 μL/well) was added to the fine black-bottom 96-well microtiter plate and the mixture was incubated at 37 °C for 30 min. After the incubation period, the reaction was started by adding a working solution (100 μL/well) ([…] Amplex Red reagent, 1 U/mL horseradish peroxidase and 1 mM p-tyramine) and all pipetting processes were performed using a Biotek Precision XS robotic system (BioTek Instruments, Winooski, VT, USA).
The production of H2O2 and, subsequently, of resorufin was quantified at 37 °C in a BioTek-Synergy H1 microplate reader based on the fluorescence generated (excitation, 535 nm, emission, 587 nm) over a 15 min period, in which the fluorescence increased linearly. Control experiments were carried out simultaneously by replacing the inhibitor solution with 2% DMSO (20 μL). In order to check the probable inhibitory effect of inhibitors on horseradish peroxidase, a parallel reading was achieved by replacing enzyme solutions with 3% H2O2 solution (20 mM 100 μL/well). In addition, the probable capacity of the inhibitors to modify the fluorescence generated in the reaction mixture due to non-enzymatic inhibition was determined by mixing inhibitor and working solutions.
The specific fluorescence emission (used to obtain the final results) was calculated after subtraction of the background activity, which was determined from vials containing all components except the hMAO isoforms, which were replaced by phosphate buffer (100 μL/well). Blank, control and all concentrations of inhibitors were analyzed in quadruplicate and inhibition percent was calculated by using following equation: % Inhibition=(FCt2−FCt1)−(FIt2−FIt1)/FCt2−FCt1×100 where FCt2 is the fluorescence of a control well measured at t2 time; FCt1 is the fluorescence of a control well measured at t1 time; FIt2 is the fluorescence of an inhibitor well measured at t2 time; and FIt1 is the fluorescence of an inhibitor well measured at t1 time.
The IC50 values were calculated from a dose-response curve obtained by plotting the percentage inhibition versus the log concentration with the use of GraphPad PRISM software (version 5.0, GraphPad Software Inc., La Jolla, CA, USA).

A short description of series [2]: cytotoxicity test (MTT) on NIH/3T3 cells. In kind it is cell-based, mouse. The following applies: mouse, NIH/3T3 mouse embryonic fibroblast cells (ATCC CRL-1658); MTT assay, 1000 µM to 0.316 µM; read-out: IC50 (cytotoxic activity against NIH/3T3 cell line). As to the method:
(§1) The healthy NIH/3T3 mouse embryonic fibroblast cell line (ATCC CRL1658), proposed by ISO (10993-5, 2009) for preliminary cytotoxicity screening of drug candidates, was used to evaluate the cytotoxicity of compound 3e. The IC50 value of the compound 3e is represented in Table 3.
(§2) NIH/3T3 mouse embryonic fibroblast cell line (ATCC® CRL-1658™, London, UK) was used in the cytotoxicity test and, initially, NIH/3T3 cells were incubated in Dulbecco’s Modified Eagle’s Medium (DMEM). NIH/3T3 cells were added to 96-well culture plates (10,000 cells/well). Synthesized compounds and reference agents were added to the 96-well culture plates at various concentrations ranging from 1000 µM to 0.316 µM. MTT assay was performed as previously described. Dose-response curves were plotted against compound concentrations applied to determine IC50 values.

Series [3] has as its system NIH/3T3 mouse embryonic fibroblast cell line. The series is described as follows: cytotoxicity test (MTT) on NIH/3T3 cells. The format is cell-based. As to the method: as §1, §2

By inhibition is commonly meant the share of the control response that was lost under treatment. Turning to `COc1ccc2sc(SCC(=O)NN=Cc3ccc([N+](=O)[O-])s3)nc2c1` [Compound 3e, 2-((5-Methoxybenzothiazol-2-yl)thio)-N′-((5-nitrothiophen-2-yl)methylene)acetohydrazide], the inhibition at 1000 µM in series [1] (10^−3 M) was found to be 22.1%. In series [1] (10^−4 M), the inhibition at 100 µM came to 18.6%. Also, the IC50 in series [2] came to 19 ± 1.03 µM. Further, the “fold IC50 against NIH/3T3 higher than IC50 against hMAO-B” value in series [3] (IC50 NIH/3T3 vs IC50 hMAO-B) is given as “ca. 300 fold”. In addition, the “cytotoxicity (in words)” value in series [3] (NIH/3T3, at its effective concentration) is listed as “not cytotoxic; also recorded: non-cytotoxic”.
